Test results: patent US20030096237A1, “Determination of the ability of patients to respond to a tumor treatment” (priority 2000, published 2003)

Tested on: CNCM I-2545
Assay: oligonucleotide array analysis of IFN-α modulated gene expression
Type: cell-based, human
Parameters: key to nAD M94880 mhc class i (hla-a*8001): normalized average difference between perfect and mismatch probeset signals
Procedure: All these cell lines were cultured in RPMI medium supplemented with 10% FCS, glutamine (2 mM), sodium pyruvate (1 mM), non-essential amino acids and HEPES buffer (10 mM) (all from GIBCO Life Sciences, Paisley, UK). When confluent, the cells were passaged by trypsinization.
Cultured melanoma cells were harvested by scraping and total cellular RNA was extracted. 10 μg from each sample were used directly as templates for cDNA synthesis using a commercial kit (Roche Molecular Biochemicals, Rotkreuz, Switzerland). The T7 promoter sequence incorporated into the cDNA synthesis primer allowed template amplification and biotin labeling by in vitro transcription using a commercial kit (Affymetrix, Santa Clara, Calif.). After alkaline heat fragmentation […] was hybridised to the array (Affymetrix, Santa Clara, Calif.) and all subsequent steps were performed following standard procedures as supplied with the arrays. Raw data were collected with a confocal laser scanner (Hewlett Packard, Palo Alto, Calif.) using GeneChip software v3.1 (Affymetrix, Santa Clara, Calif.).
Raw data were normalized based on the total chip signal obtained upon hybridisation of ME15 cell line cDNA. This array was selected because: i) the 5′/3′ intensity ratio of control genes was smaller than 3; ii)>25% of the genes are called “present” by Genechip; iii) the image appearance is homogeneous with low background and no sign of mechanical chip damage.
The normalized average difference (nAD) between the signals of the perfect and of the mismatch probesets for each gene was used as the expression level of a given gene. At least one nAD value in a pairwise comparison of data has to exceed 50 to be included. Based on nAD, change factors related to IFN-α exposure were also calculated. Negative nAD values were set to 20 in order to avoid the calculation of artificially high modifications. In order to exclude artefacts, only genes with robust change factors, greater than 2-fold, were included in the analysis. […] Genes were clustered according to their mode of regulation.
Total cellular RNA was extracted from the sensitive and resistant melanoma cell lines identified above, reverse transcribed and processed for hybridization to an oligonucleotide array (Hu6800FL, PN 900183) containing probe sets derived from 7000 full-length human genes. Expression levels for each gene were calculated as normalized average difference (nAD, see materials and methods).
Patterns of genes expressed in IFN-α sensitive and resistant melanoma cell lines were investigated upon 48 hour culture in the presence of IFN-α. CNCM I-2546 and CNCM I-2545 were studied in detail.
In Table 2 below, CNCM I-2546 and CNCM I-2545 cultured for 48 hours in the absence or in the presence of 100 U/ml IFN-α were used to assay cytokine modulated gene expression as matched with data obtained in fibrosarcoma cells. This analysis yielded six clusters of genes. […] Data are presented as average difference of signal intensity between match and mismatch probesets.
In Table 3 below, CNCM I-2546 and CNCM I-2545 cell lines cultured for 48 hours in the absence or in the presence of 100 U/ml IFN-α were used to identify novel cytokine induced genes whose expression was not found to be modulated in fibrosarcoma cells. Cluster 1 includes genes inducible in the CNCM I-2546 sensitive but not in the CNCM I-2545 resistant cell line. Cluster 2 comprises genes inducible in both lines. Data are presented as average difference of signal intensity between match and mismatch probesets.

[1] = CNCM I-2545 (+) IFN-α 100 U/ml 48 hours, (−) 11
[2] = CNCM I-2545 (+) IFN-α 100 U/ml 48 hours, (−) 106
[3] = CNCM I-2545 (+) IFN-α 100 U/ml 48 hours, (−) 115
[4] = CNCM I-2545 (+) IFN-α 100 U/ml 48 hours, (−) 234
[5] = CNCM I-2545 (+) IFN-α 100 U/ml 48 hours, (−) 238

## IFN-α
CNCM I-2545 (+) IFN-α 100 U/ml 48 hours, (−) 0
  nAD X15949 interferon regulatory factor-2 (irf-2): 13
[1]
  nAD M92642 alpha-1 type xvi collagen (col16a1): 115
  nAD U18018 ela enhancer binding protein (ela-f): 23
CNCM I-2545 (+) IFN-α 100 U/ml 48 hours, (−) 20
  nAD M30818 interferon-induced cellular resistance mediator protein: 5
CNCM I-2545 (+) IFN-α 100 U/ml 48 hours, (−) 22
  nAD L07633 interferon-gamma: 275
CNCM I-2545 (+) IFN-α 100 U/ml 48 hours, (−) 24
  nAD X70848 protein phosphatase 1, catalytic subunit: 226
CNCM I-2545 (+) IFN-α 100 U/ml 48 hours, (−) 37
  nAD D28137 bst-2: 88
CNCM I-2545 (+) IFN-α 100 U/ml 48 hours, (−) 42
  nAD J03909 gamma-interferon-inducible protein (ip-30): 142
CNCM I-2545 (+) IFN-α 100 U/ml 48 hours, (−) 62
  nAD L42243 ifnar2 gene (interferon receptor): −6
CNCM I-2545 (+) IFN-α 100 U/ml 48 hours, (−) 66
  nAD J04182 lysosomal membrane glycoprotein-1 (lamp1): 484
CNCM I-2545 (+) IFN-α 100 U/ml 48 hours, (−) 88
  nAD D78132 rheb gene, ras-related gtp binding protein gene: 253
CNCM I-2545 (+) IFN-α 100 U/ml 48 hours, (−) 93
  nAD Z56281 interferon regulatory factor 3: 31
CNCM I-2545 (+) IFN-α 100 U/ml 48 hours, (−) 103
  nAD U53830 interferon regulatory factor 7a: 5
CNCM I-2545 (+) IFN-α 100 U/ml 48 hours, (−) 104
  nAD L40387 thyroid receptor interactor (trip14): 5
[2]
  nAD J00212 leukocyte interferon (ifn-alpha): 9
  nAD U50648 interferon-inducible rna-dependent protein kinase (pkr): 46
CNCM I-2545 (+) IFN-α 100 U/ml 48 hours, (−) 114
  nAD U69126 fuse binding protein 2 (fbp2): 159
[3]
  nAD M60784 ul snrnp-specific protein: 413
  nAD U70063 human acid ceramidase: 400
CNCM I-2545 (+) IFN-α 100 U/ml 48 hours, (−) 125
  nAD U72882 interferon-induced leucine zipper protein (ifp35): 27
CNCM I-2545 (+) IFN-α 100 U/ml 48 hours, (−) 132
  nAD X76538 mpv17: 101
CNCM I-2545 (+) IFN-α 100 U/ml 48 hours, (−) 137
  nAD M19650 2′,3′-cyclic nucleotide 3prime-phosphodiesterase: 99
CNCM I-2545 (+) IFN-α 100 U/ml 48 hours, (−) 143
  nAD X57522 ring4 cdna: 49
CNCM I-2545 (+) IFN-α 100 U/ml 48 hours, (−) 154
  nAD M65028 heterogeneous nuclear ribonucleoprotein a/b: 353
CNCM I-2545 (+) IFN-α 100 U/ml 48 hours, (−) 156
  nAD K01900 lymphocyte interferon alpha type 201: 7
CNCM I-2545 (+) IFN-α 100 U/ml 48 hours, (−) 165
  nAD U78525 human eukaryotic translation initiation factor (eif3): 372
CNCM I-2545 (+) IFN-α 100 U/ml 48 hours, (−) 201
  nAD M79462 pml-1: 11
CNCM I-2545 (+) IFN-α 100 U/ml 48 hours, (−) 218
  nAD L37043 casein kinase i epsilon: 221
CNCM I-2545 (+) IFN-α 100 U/ml 48 hours, (−) 220
  nAD X04412 plasma gelsolin: 220
CNCM I-2545 (+) IFN-α 100 U/ml 48 hours, (−) 229
  nAD X96401 rox protein: 83
[4]
  nAD D50914 EST: 78
  nAD X07730 prostate specific antigen: 85
[5]
  nAD U72206 guanine nucleotide regulatory factor (lfp40): 162
  nAD Z26491 gene catechol o-methyltransferase: 181
CNCM I-2545 (+) IFN-α 100 U/ml 48 hours, (−) 253
  nAD U91316 acyl-coa thioester hydrolase: 428
CNCM I-2545 (+) IFN-α 100 U/ml 48 hours, (−) 262
  nAD U51127 interferon regulatory factor 5: 91
CNCM I-2545 (+) IFN-α 100 U/ml 48 hours, (−) 289
  nAD U52513 rig-g: 10
CNCM I-2545 (+) IFN-α 100 U/ml 48 hours, (−) 331
  nAD M97935 transcription factor isgf-3: 92
CNCM I-2545 (+) IFN-α 100 U/ml 48 hours, (−) 339
  nAD U01824 glutamate/aspartate transporter: 35
CNCM I-2545 (+) IFN-α 100 U/ml 48 hours, (−) 353
  nAD HG2917 major histocompatibility complex, class i, e: 322
CNCM I-2545 (+) IFN-α 100 U/ml 48 hours, (−) 357
  nAD X90846 mixed lineage kinase 2: 60
CNCM I-2545 (+) IFN-α 100 U/ml 48 hours, (−) 377
  nAD M31013 nonmuscle myosin heavy chain (nmhc): 263
CNCM I-2545 (+) IFN-α 100 U/ml 48 hours, (−) 388
  nAD D21235 hhr23a protein: 346
CNCM I-2545 (+) IFN-α 100 U/ml 48 hours, (−) 392
  nAD Y00264 amyloid a4 precursor: 427
CNCM I-2545 (+) IFN-α 100 U/ml 48 hours, (−) 394
  nAD Z47055 farnesyl pyrophosphate synthetase like: 797
CNCM I-2545 (+) IFN-α 100 U/ml 48 hours, (−) 401
  nAD U50327 protein kinase c substrate 80k-h gene (prkcsh): 236
CNCM I-2545 (+) IFN-α 100 U/ml 48 hours, (−) 410
  nAD U61263 acetolactate synthase homolog: 301
CNCM I-2545 (+) IFN-α 100 U/ml 48 hours, (−) 472
  nAD M34338 spermidine synthase: 277
CNCM I-2545 (+) IFN-α 100 U/ml 48 hours, (−) 527
  nAD D49824 hla-b null allele: 267
CNCM I-2545 (+) IFN-α 100 U/ml 48 hours, (−) 551
  nAD M94880 mhc class i (hla-a*8001): 421
CNCM I-2545 (+) IFN-α 100 U/ml 48 hours, (−) 588
  nAD HG1612 macmarcks: 505
CNCM I-2545 (+) IFN-α 100 U/ml 48 hours, (−) 630
  nAD U65579 mitochondrial nadh dehydrogenase-ubiquinone: 621
CNCM I-2545 (+) IFN-α 100 U/ml 48 hours, (−) 634
  nAD X95325 dna binding protein a variant: 253
CNCM I-2545 (+) IFN-α 100 U/ml 48 hours, (−) 672
  nAD U47025 fetal brain glycogen phosphorylase b: 465
CNCM I-2545 (+) IFN-α 100 U/ml 48 hours, (−) 674
  nAD U18009 chromosome 17q21 clone lf113: 423
CNCM I-2545 (+) IFN-α 100 U/ml 48 hours, (−) 886
  nAD J04444 cytochrome c-1 gene: 2268
CNCM I-2545 (+) IFN-α 100 U/ml 48 hours, (−) 1183
  nAD HG658 major histocompatibility complex, class 1 c: 455
CNCM I-2545 (+) IFN-α 100 U/ml 48 hours, (−) 1458
  nAD D32050 alanyl-trna synthetase: 761
CNCM I-2545 (+) IFN-α 100 U/ml 48 hours, (−) 1668
  nAD J00105 beta-2 microglobulin gene: 2101
CNCM I-2545 (+) IFN-α 100 U/ml 48 hours, (−) 2469
  nAD X57351 1-8d gene from interferon-inducible gene family: 2686
CNCM I-2545 (+) IFN-α 100 U/ml 48 hours, (−) 2498
  nAD U65932 extracellular matrix protein 1 (ecm1): 1066
CNCM I-2545 (+) IFN-α 100 U/ml 48 hours, (−) 2555
  nAD L13210 mac-2 binding protein: 2092
CNCM I-2545 (+) IFN-α 100 U/ml 48 hours, (−) 2998
  nAD K03515 neuroleukin: 2552
CNCM I-2545 (+) IFN-α 100 U/ml 48 hours, (−) −24
  nAD M98343 amplaxin (ems1): 63
CNCM I-2545 (+) IFN-α 100 U/ml 48 hours, (−) −40
  nAD L35249 vacuolar h + -atpase mr 56,000 subunit (ho57): 357
CNCM I-2545 (+) IFN-α 100 U/ml 48 hours, (−) −59
  nAD U09579 melanoma differentiation associated (mda-6): −26
CNCM I-2545 (+) IFN-α 100 U/ml 48 hours, (−) −62
  nAD U41515 dss1: 123
CNCM I-2545 (+) IFN-α 100 U/ml 48 hours, (−) −66
  nAD S81914 iex-1 = radiation-inducible immediate-early gene: 21
CNCM I-2545 (+) IFN-α 100 U/ml 48 hours, (−) −163
  nAD M13755 interferon-induced 17-kda/15-kda protein: 31
CNCM I-2545 (+) IFN-α 100 U/ml 48 hours, (−) −190
  nAD U22970 16-jun gene, interferon-inducible peptide (6-16): 24
CNCM I-2545 (+) IFN-α 100 U/ml 48 hours, (−) −447
  nAD J04164 interferon-inducible protein 27-sep: −97
CNCM I-2545 (+) IFN-α 100 U/ml 48 hours, (−) −460
  nAD X67325 p27: −86
CNCM I-2545, IFN-α 100 U/ml 48 hours
  change factor (CF) D21235 hhr23a protein: −0.12
